Assay results: ChEMBL document CHEMBL5724806, “Unraveling interindividual differences and functional consequences of gut microbial metabolism of immunosuppressants” (2024)

Experiments:
Assay type in all cases: ADME
[1] = (§1) The drug is tested on Bifidobacterium longum strain: DSM20088 for biotransformation under anaerobic condition. The drug concentrations were measured over 6 timepoints collected between 0 and 12 hours of incubation by liquid-chromatography-coupled mass spectrometry (LC–MS); design: dose 5 uM, timepoint 0, 1.5, 3, 6, 9, 12 hours; conditions: 5 µM
[2] = The drug is tested on Collinsella aerofaciens strain: DSM3979 for biotransformation under anaerobic condition. The drug concentrations were measured over 6 timepoints collected between 0 and 12 hours of incubation by liquid-chromatography-coupled mass spectrometry (LC–MS); design: dose 5 uM, timepoint 0, 1.5, 3, 6, 9, 12 hours; conditions: 5 µM
[3] = The drug is tested on Bacteroides caccae strain: DSM19024 for biotransformation under anaerobic condition. The drug concentrations were measured over 6 timepoints collected between 0 and 12 hours of incubation by liquid-chromatography-coupled mass spectrometry (LC–MS); design: dose 5 uM, timepoint 0, 1.5, 3, 6, 9, 12 hours; conditions: 5 µM
[4] = The drug is tested on Bacteroides fragilis strain: DSM2151 for biotransformation under anaerobic condition. The drug concentrations were measured over 6 timepoints collected between 0 and 12 hours of incubation by liquid-chromatography-coupled mass spectrometry (LC–MS); design: dose 5 uM, timepoint 0, 1.5, 3, 6, 9, 12 hours; conditions: 5 µM
[5] = The drug is tested on Bacteroides uniformis strain: DSM6597 for biotransformation under anaerobic condition. The drug concentrations were measured over 6 timepoints collected between 0 and 12 hours of incubation by liquid-chromatography-coupled mass spectrometry (LC–MS); design: dose 5 uM, timepoint 0, 1.5, 3, 6, 9, 12 hours; conditions: 5 µM
[6] = The drug is tested on Bacteroides vulgatus strain: DSM1447 for biotransformation under anaerobic condition. The drug concentrations were measured over 6 timepoints collected between 0 and 12 hours of incubation by liquid-chromatography-coupled mass spectrometry (LC–MS); design: dose 5 uM, timepoint 0, 1.5, 3, 6, 9, 12 hours; conditions: phocaeicola vulgatus, 5 µM
[7] = The drug is tested on Blautia hansenii strain: DSM20583 for biotransformation under anaerobic condition. The drug concentrations were measured over 6 timepoints collected between 0 and 12 hours of incubation by liquid-chromatography-coupled mass spectrometry (LC–MS); design: dose 5 uM, timepoint 0, 1.5, 3, 6, 9, 12 hours; conditions: 5 µM
[8] = The drug is tested on Clostridium scindens strain: DSM5676 for biotransformation under anaerobic condition. The drug concentrations were measured over 6 timepoints collected between 0 and 12 hours of incubation by liquid-chromatography-coupled mass spectrometry (LC–MS); design: dose 5 uM, timepoint 0, 1.5, 3, 6, 9, 12 hours; conditions: 5 µM
[9] = The drug is tested on Dorea formicigenerans strain: DSM3992 for biotransformation under anaerobic condition. The drug concentrations were measured over 6 timepoints collected between 0 and 12 hours of incubation by liquid-chromatography-coupled mass spectrometry (LC–MS); design: dose 5 uM, timepoint 0, 1.5, 3, 6, 9, 12 hours; conditions: 5 µM
[10] = The drug is tested on Eubacterium rectale strain: DSM17629 for biotransformation under anaerobic condition. The drug concentrations were measured over 6 timepoints collected between 0 and 12 hours of incubation by liquid-chromatography-coupled mass spectrometry (LC–MS); design: dose 5 uM, timepoint 0, 1.5, 3, 6, 9, 12 hours; conditions: agathobacter rectalis, 5 µM
[11] = The drug is tested on Lactobacillus fermentum strain: DSM20052 for biotransformation under anaerobic condition. The drug concentrations were measured over 6 timepoints collected between 0 and 12 hours of incubation by liquid-chromatography-coupled mass spectrometry (LC–MS); design: dose 5 uM, timepoint 0, 1.5, 3, 6, 9, 12 hours; conditions: limosilactobacillus fermentum, 5 µM
[12] = The drug is tested on Lactobacillus gasseri strain: DSM20243 for biotransformation under anaerobic condition. The drug concentrations were measured over 6 timepoints collected between 0 and 12 hours of incubation by liquid-chromatography-coupled mass spectrometry (LC–MS); design: dose 5 uM, timepoint 0, 1.5, 3, 6, 9, 12 hours; conditions: 5 µM
[13] = The drug is tested on Lactobacillus paracasei strain: ATCC27092 for biotransformation under anaerobic condition. The drug concentrations were measured over 6 timepoints collected between 0 and 12 hours of incubation by liquid-chromatography-coupled mass spectrometry (LC–MS); design: dose 5 uM, timepoint 0, 1.5, 3, 6, 9, 12 hours; conditions: lacticaseibacillus paracasei, 5 µM
[14] = The drug is tested on Streptococcus sanguinis strain: DSM20567 for biotransformation under anaerobic condition. The drug concentrations were measured over 6 timepoints collected between 0 and 12 hours of incubation by liquid-chromatography-coupled mass spectrometry (LC–MS); design: dose 5 uM, timepoint 0, 1.5, 3, 6, 9, 12 hours; conditions: 5 µM
[15] = (§2) The drug is tested on Actinomyces graevenitzii strain: DSM15540 for biotransformation under microaerobic condition. The drug concentrations were measured over 6 timepoints collected between 0 and 12 hours of incubation by liquid-chromatography-coupled mass spectrometry (LC–MS); design: dose 5 uM, timepoint 0, 1.5, 3, 6, 9, 12 hours; conditions: 5 µM
[16] = The drug is tested on Gemella haemolysans strain: DSM107751 for biotransformation under microaerobic condition. The drug concentrations were measured over 6 timepoints collected between 0 and 12 hours of incubation by liquid-chromatography-coupled mass spectrometry (LC–MS); design: dose 5 uM, timepoint 0, 1.5, 3, 6, 9, 12 hours; conditions: 5 µM
[17] = The drug is tested on Lactobacillus paracasei strain: ATCC27092 for biotransformation under microaerobic condition. The drug concentrations were measured over 6 timepoints collected between 0 and 12 hours of incubation by liquid-chromatography-coupled mass spectrometry (LC–MS); design: dose 5 uM, timepoint 0, 1.5, 3, 6, 9, 12 hours; conditions: lacticaseibacillus paracasei, 5 µM
[18] = as §1, with “the gut metagenome community of A-02 with ENA study accession number: PRJEB31790” for “Bifidobacterium longum strain: DSM20088”, “7” for “6”; design: dose 5 uM, timepoint 0, 0.75, 1.5, 3, 6, 9, 12 hours; conditions: 5 µM
[19] = as §1, with “the gut metagenome community of A-06 with ENA study accession number: PRJEB31790” for “Bifidobacterium longum strain: DSM20088”, “7” for “6”; design: dose 5 uM, timepoint 0, 0.75, 1.5, 3, 6, 9, 12 hours; conditions: 5 µM
[20] = as §1, with “the gut metagenome community of A-08 with ENA study accession number: PRJEB31790” for “Bifidobacterium longum strain: DSM20088”, “7” for “6”; design: dose 5 uM, timepoint 0, 0.75, 1.5, 3, 6, 9, 12 hours; conditions: 5 µM
[21] = as §1, with “the gut metagenome community of P-02 with ENA study accession number: PRJEB31790” for “Bifidobacterium longum strain: DSM20088”, “7” for “6”; design: dose 5 uM, timepoint 0, 0.75, 1.5, 3, 6, 9, 12 hours; conditions: 5 µM
[22] = as §1, with “the gut metagenome community of P-03 with ENA study accession number: PRJEB31790” for “Bifidobacterium longum strain: DSM20088”, “7” for “6”; design: dose 5 uM, timepoint 0, 0.75, 1.5, 3, 6, 9, 12 hours; conditions: 5 µM
[23] = as §1, with “the gut metagenome community of T-04 with ENA study accession number: PRJEB31790” for “Bifidobacterium longum strain: DSM20088”, “7” for “6”; design: dose 5 uM, timepoint 0, 0.75, 1.5, 3, 6, 9, 12 hours; conditions: 5 µM
[24] = as §1, with “the gut metagenome community of T-05 with ENA study accession number: PRJEB31790” for “Bifidobacterium longum strain: DSM20088”, “7” for “6”; design: dose 5 uM, timepoint 0, 0.75, 1.5, 3, 6, 9, 12 hours; conditions: 5 µM
[25] = as §2, with “the gut metagenome community of A-02 with ENA study accession number: PRJEB31790” for “Actinomyces graevenitzii strain: DSM15540”, “7” for “6”; design: dose 5 uM, timepoint 0, 0.75, 1.5, 3, 6, 9, 12 hours; conditions: 5 µM
[26] = as §2, with “the gut metagenome community of A-03 with ENA study accession number: PRJEB31790” for “Actinomyces graevenitzii strain: DSM15540”, “7” for “6”; design: dose 5 uM, timepoint 0, 0.75, 1.5, 3, 6, 9, 12 hours; conditions: 5 µM
[27] = as §2, with “the gut metagenome community of A-09 with ENA study accession number: PRJEB31790” for “Actinomyces graevenitzii strain: DSM15540”, “7” for “6”; design: dose 5 uM, timepoint 0, 0.75, 1.5, 3, 6, 9, 12 hours; conditions: 5 µM
[28] = as §2, with “the gut metagenome community of P-02 with ENA study accession number: PRJEB31790” for “Actinomyces graevenitzii strain: DSM15540”, “7” for “6”; design: dose 5 uM, timepoint 0, 0.75, 1.5, 3, 6, 9, 12 hours; conditions: 5 µM
[29] = as §2, with “the gut metagenome community of T-04 with ENA study accession number: PRJEB31790” for “Actinomyces graevenitzii strain: DSM15540”, “7” for “6”; design: dose 5 uM, timepoint 0, 0.75, 1.5, 3, 6, 9, 12 hours; conditions: 5 µM
[30] = as §2, with “the gut metagenome community of T-05 with ENA study accession number: PRJEB31790” for “Actinomyces graevenitzii strain: DSM15540”, “7” for “6”; design: dose 5 uM, timepoint 0, 0.75, 1.5, 3, 6, 9, 12 hours; conditions: 5 µM

| Bacterial Biotransformation [1] | Bacterial Biotransformation [2] | Bacterial Biotransformation [3] | Bacterial Biotransformation [4] | Bacterial Biotransformation [5] | Bacterial Biotransformation [6] | Bacterial Biotransformation [7] | Bacterial Biotransformation [8] | Bacterial Biotransformation [9] | Bacterial Biotransformation [10] | Bacterial Biotransformation [11] | Bacterial Biotransformation [12] | Bacterial Biotransformation [13] | Bacterial Biotransformation [14] | Bacterial Biotransformation [15] | Bacterial Biotransformation [17] | Bacterial Biotransformation [18] | Bacterial Biotransformation [19] | Bacterial Biotransformation [20] | SMILES | Bacterial Biotransformation [16] | further results |
| --- | --- | --- | --- | --- | --- | --- | --- | --- | --- | --- | --- | --- | --- | --- | --- | --- | --- | --- | --- | --- | --- |
| Compound NOT metabolized | Compound NOT metabolized | Compound NOT metabolized | Compound NOT metabolized | Compound NOT metabolized | Compound NOT metabolized | Compound NOT metabolized | Compound NOT metabolized | Compound NOT metabolized | Compound NOT metabolized | Compound NOT metabolized | Compound NOT metabolized | Compound NOT metabolized | Compound NOT metabolized | Compound NOT metabolized | Compound NOT metabolized | Compound NOT metabolized | Compound NOT metabolized | Compound NOT metabolized | NS(=O)(=O)c1cc(C(=O)O)c(NCc2ccco2)cc1Cl [FUROSEMIDE] | Compound NOT metabolized | Bacterial Biotransformation [21]: Compound NOT metabolized; Bacterial Biotransformation [22]: Compound NOT metabolized; Bacterial Biotransformation [23]: Compound NOT metabolized; Bacterial Biotransformation [24]: Compound NOT metabolized; Bacterial Biotransformation [25]: Compound NOT metabolized; Bacterial Biotransformation [26]: Compound NOT metabolized; Bacterial Biotransformation [27]: Compound NOT metabolized; Bacterial Biotransformation [28]: Compound NOT metabolized; Bacterial Biotransformation [29]: Compound NOT metabolized; Bacterial Biotransformation [30]: Compound NOT metabolized |
| Compound NOT metabolized | Compound NOT metabolized | Compound NOT metabolized | Compound NOT metabolized | Compound NOT metabolized | Compound NOT metabolized | Compound NOT metabolized | Compound NOT metabolized | Compound NOT metabolized | Compound NOT metabolized | Compound metabolized | Compound NOT metabolized | Compound NOT metabolized | Compound NOT metabolized | Compound NOT metabolized | Compound NOT metabolized | Compound NOT metabolized | Compound NOT metabolized | Compound NOT metabolized | CCOc1nc2cccc(C(=O)O)c2n1Cc1ccc(-c2ccccc2-c2nnn[nH]2)cc1 | Compound NOT metabolized | Bacterial Biotransformation [21]: Compound NOT metabolized; Bacterial Biotransformation [22]: Compound NOT metabolized; Bacterial Biotransformation [23]: Compound NOT metabolized; Bacterial Biotransformation [24]: Compound NOT metabolized; Bacterial Biotransformation [25]: Compound NOT metabolized; Bacterial Biotransformation [26]: Compound NOT metabolized; Bacterial Biotransformation [27]: Compound NOT metabolized; Bacterial Biotransformation [28]: Compound NOT metabolized; Bacterial Biotransformation [29]: Compound NOT metabolized; Bacterial Biotransformation [30]: Compound NOT metabolized |
| Compound NOT metabolized | Compound NOT metabolized | Compound NOT metabolized | Compound NOT metabolized | Compound NOT metabolized | Compound NOT metabolized | Compound NOT metabolized | Compound NOT metabolized | Compound NOT metabolized | Compound NOT metabolized | Compound NOT metabolized | Compound NOT metabolized | Compound NOT metabolized | Compound NOT metabolized | Compound NOT metabolized | Compound NOT metabolized | Compound NOT metabolized | Compound NOT metabolized | Compound NOT metabolized | C[C@@H](NCCCc1cccc(C(F)(F)F)c1)c1cccc2ccccc12 | Compound NOT metabolized | Bacterial Biotransformation [21]: Compound NOT metabolized; Bacterial Biotransformation [22]: Compound NOT metabolized; Bacterial Biotransformation [23]: Compound NOT metabolized; Bacterial Biotransformation [24]: Compound NOT metabolized; Bacterial Biotransformation [25]: Compound NOT metabolized; Bacterial Biotransformation [26]: Compound NOT metabolized; Bacterial Biotransformation [27]: Compound NOT metabolized; Bacterial Biotransformation [28]: Compound NOT metabolized; Bacterial Biotransformation [29]: Compound NOT metabolized; Bacterial Biotransformation [30]: Compound NOT metabolized |
